Laboratory results from patent US20060270591A1, “Androgen receptor coregulators” (priority 2002, published 2006).

Tests used:
ER = biological target: T1, ER (Homo sapiens, UniProt P03372); assay: ER transactivation with ARA70 in DU145 cells (Example 3); type: cell-based; parameters: expressed in transfected cells; host or cells: DU145
T1 sequence (P03372 1-595): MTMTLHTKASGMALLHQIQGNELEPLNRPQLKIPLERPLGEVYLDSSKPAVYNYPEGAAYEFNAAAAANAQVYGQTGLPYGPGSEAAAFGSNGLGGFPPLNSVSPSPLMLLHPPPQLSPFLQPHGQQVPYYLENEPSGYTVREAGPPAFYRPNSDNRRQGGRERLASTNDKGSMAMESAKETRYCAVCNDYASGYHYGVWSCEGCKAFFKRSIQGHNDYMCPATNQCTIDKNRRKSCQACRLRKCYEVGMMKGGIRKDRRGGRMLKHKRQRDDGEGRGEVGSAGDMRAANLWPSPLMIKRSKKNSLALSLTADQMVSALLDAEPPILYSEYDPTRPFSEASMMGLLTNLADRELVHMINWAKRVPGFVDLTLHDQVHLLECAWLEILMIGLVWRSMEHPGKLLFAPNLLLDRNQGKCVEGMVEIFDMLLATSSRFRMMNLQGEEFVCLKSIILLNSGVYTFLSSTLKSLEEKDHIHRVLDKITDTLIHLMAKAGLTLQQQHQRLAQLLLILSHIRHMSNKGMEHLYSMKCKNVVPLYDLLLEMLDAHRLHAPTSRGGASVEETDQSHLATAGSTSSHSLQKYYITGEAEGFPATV
Procedure: 411. Human prostate cancer DU145 and PC-3 cells were maintained in […] (DMEM) containing penicillin (25 U/ml), streptomycin (25 μg/ml), and 5% fetal calf serum (FCS). Human LNCaP cells were maintained in RPMI containing penicillin (25 U/ml), streptomycin (25 μg/ml), and 10% FCS. Transfections were performed using the calcium phosphate precipitation method, as previously described (Dynlacht et al. (1991) Cell 66, 563-576). Briefly, 4×10^5 cells were plated on 60-mm dishes 24 hours before transfection, and the medium was changed to DMEM with 5% charcoal-dextran stripped FCS (CS-FBS) one hour before transfection. Transfection medium contained a constant amount of reporter plasmid and indicated amounts of pSG5-receptor, ARA70, or pCMX-GAL fusion construct using pSG5 as a carrier to provide equal amounts of transfected DNA. Twenty-four hours after transfection, the medium was changed again, and the cells were treated with DHT or other treatments. After another 24 hours, the cells were harvested for chloramphenicol transferase (CAT) or luciferase assays. At least three independent experiments were carried out in each case. Superfect (Qiagen) was used for transfection in LNCaP cells. The transfection conditions followed the manufacturer's protocol. […]

AR = AR transactivation assay, MMTV-CAT reporter, transient transfection (Example 1); type: cell-based, human; details: DU145 cells; wild type AR; 1 nM DHT
Procedure: Human prostate cancer DU145 or PC3 cells, or human lung carcinoma cells NCI H1299 were grown in Dulbecco's minimal essential medium (DMEM) containing penicillin (25 U/ml), streptomycin (25˜g/ml), and 5% fetal calf serum (FCS). One hour before transfection, the medium was changed to DMEM with 5% charcoal-stripped FCS. […] A β-galactosidase expression plasmid, pCMV-β-gal, was used as an internal control for transfection efficiency.
The medium was changed 24 hr posttransfection and the cells treated with either steroid hormones or hydroxyflutamide, and cultured for an additional 24 hr. Cells were harvested and assayed for CAT activity after the cell lysates were normalized by using β-galactosidaseas an internal control. Chloramphenicol acetyltransferase (CA) activity was visualized by PhosphorImager (Molecular Dynamics) and quantitated by ImageQuant software (Molecular Dynamics).

p27^KIP1 = assay: Western blot of p27KIP1 in PC-3(AR2) cells; type: cell-based, human; details: 10 nM DHT
Procedure: 41. […] (A) C2C12, COS-1, DU145 and PC-3 cell lines were co-transfected with 30 ng pSG5-AR, 0.5 μg MMTV-Luc, 1 ng pRL-SV40, various amounts of pSG5-bSV as indicated, and adjusted to total amount of 2 μg DNA with pSG5. The assay method was the same as FIG. 2. After measuring the luciferase activity, values relative to lane 1 were calculated. Results are the mean±S.D. of three independent experiments. (B) PC-3 was co-transfected with 30 ng pSG5-AR, 1.5 μg pSG5-bSV, 1 ng pRL-SV40, and 0.5 μg reporter gene as indicated by using SuperFect. […] (C) PC-3(AR2) cell line was transfected with EGFP or EGFP-bSV expressing vector using SuperFect. […] Proteins extracted from cells were loaded on 15% SDS-PAGE and analyzed by western blotting. The intensity of each p27 band was quantified and normalized with control protein which is a non-specific band pick up by the antibody in the same blot. The relative intensities to lane 1 were calculated.
478. Protein samples extracted from the cell were separated on 15% SDS-PAGE and transferred to nitrocellulose membranes. Membranes were incubated 1 h with 5% non-fat milk in TBST at room temperature, followed by the antibodies against p27^(KIP1) (Santa Cruz), followed by AP conjugated goat-antimouse antibody. Blots were developed using the AP developing reagent from Bio-Rad. Band intensity was quantitated by Collage® image analysis software (Fotodyne Inc.).

AR, sequence (P10275 whole entry): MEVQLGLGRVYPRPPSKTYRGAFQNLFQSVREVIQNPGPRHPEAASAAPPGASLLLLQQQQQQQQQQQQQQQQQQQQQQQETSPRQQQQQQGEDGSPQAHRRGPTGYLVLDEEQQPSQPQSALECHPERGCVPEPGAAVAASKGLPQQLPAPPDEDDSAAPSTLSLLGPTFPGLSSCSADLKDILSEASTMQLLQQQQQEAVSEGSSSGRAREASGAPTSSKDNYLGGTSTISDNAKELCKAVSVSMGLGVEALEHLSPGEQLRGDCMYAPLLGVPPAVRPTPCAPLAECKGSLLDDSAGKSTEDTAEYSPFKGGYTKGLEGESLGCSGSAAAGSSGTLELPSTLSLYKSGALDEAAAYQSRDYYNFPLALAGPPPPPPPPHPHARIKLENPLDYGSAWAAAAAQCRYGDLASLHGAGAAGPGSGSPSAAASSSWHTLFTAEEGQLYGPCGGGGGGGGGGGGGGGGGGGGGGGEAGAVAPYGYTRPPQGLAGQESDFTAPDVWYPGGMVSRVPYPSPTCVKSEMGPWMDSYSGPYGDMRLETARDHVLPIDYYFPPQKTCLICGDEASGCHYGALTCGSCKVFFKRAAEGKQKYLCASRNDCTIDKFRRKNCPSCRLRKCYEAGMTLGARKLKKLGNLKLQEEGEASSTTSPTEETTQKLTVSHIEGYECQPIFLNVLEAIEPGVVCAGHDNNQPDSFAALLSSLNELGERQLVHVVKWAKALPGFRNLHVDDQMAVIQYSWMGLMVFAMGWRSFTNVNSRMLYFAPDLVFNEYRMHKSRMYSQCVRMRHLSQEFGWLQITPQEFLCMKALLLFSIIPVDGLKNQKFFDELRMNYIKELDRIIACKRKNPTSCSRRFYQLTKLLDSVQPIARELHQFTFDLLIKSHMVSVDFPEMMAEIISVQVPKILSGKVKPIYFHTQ

| enhancement of ER transactivation (ER) | Substance | AR transcription activity with cotransfected coactivator (AR) [fold] | p27^(KIP1) protein expression (p27^KIP1) |
| --- | --- | --- | --- |
| 2-3 fold | ARA70: ligand-enhanced AR coregulator, full length ARA70 | 36 | – |
| – | SV: supervillin, 205 kDa actin binding protein; bovine SV (a.a. 1-1792) used in reporter assays | – | further enhanced p27^(KIP1) protein expression |
